Results reported in patent US20240325369A1 (priority 2021, published 2024).
Several values for one entry are separate records, joined by “and”; a condition that tells them apart may be missing. Equal values may be shown once. Read-outs that look alike come from different tables or passages of the source.

Tested on: metastatic castration-resistant prostate cancer (mCRPC) with DNA-repair anomalies
Description: The planned sample size was approximately 120 subjects with measurable disease who were biomarker-positive (approximately 75 subjects with DNA repair anomalies in BRCA [BRCA1 or BRCA2] and approximately 45 subjects with biallelic DNA-repair anomalies in non-BRCA [ATM, FANCA, PALB2, CHEK2, BRIP1, or HDAC2]).
Efficacy objectives were evaluated for subjects meeting the biomarker selection criteria described in the protocol. All subjects were monitored for safety during the study period, and up to 30 days after the last dose of study drug. Treatment continued until disease progression, unacceptable toxicity, death, or termination of the study by the sponsor.
Diagnosis and Main Criteria for Inclusion: The target population consisted of male subjects over the age of 18 years with mCRPC and DNA-repair anomalies (biallelic mutations and germline pathogenic mutations only for BRCA1 or BRCA2 mutations) who had received at least 1 prior taxane-based chemotherapy and at least 1 prior AR targeted therapy (second-generation or later). Subjects were asked to provide a tumor tissue sample (archival or recently collected, if available), and a blood sample for analysis of DNA-repair anomalies using a sponsor-validated assay.
Criteria for Evaluation: Efficacy assessments included chest, abdomen, and pelvis CT or MRI scans and whole-body bone scans (^99mTc) to evaluate objective response and disease progression.
The primary endpoint was ORR and summarized for the BRCA analysis set along with the 95% 2-sided exact CI. In addition, the counts and percentage of subjects in each response category (CR. PR, etc.) were tabulated. ORR in non-BRCA subjects was analyzed in the same way.
Descriptive summaries of CTC response were generated for BRCA and non-BRCA analysis sets, measurable and non-measurable subgroups and tabulated with its 2-sided 95% exact CI. Waterfall plots of percent change in CTC were also presented, showing the percentage change in CTC counts from baseline to 8 weeks, as well as maximal CTC count declines. All time to event secondary endpoints were evaluated using Kaplan-Meier method for BRCA and non-BRCA analysis sets. Median time to event and the corresponding 95% CI were provided. Descriptive summaries were provided for BRCA and non-BRCA analysis sets.
Time to degradation was determined using the following meaningful change threshold values: FACT-P Total (10-point reduction from baseline), EQ-5D-5L Index (0.09-point reduction from baseline). EQ-5D-5L VAS (10-point reduction from baseline), and BPI SF worst pain intensity item (30% reduction from baseline).
The primary endpoint was ORR, defined as the proportion of subjects with BRCA DNA-repair anomalies and measurable disease whose best response was either CR or PR as defined by RECIST 1.1 (Eisenhauer et al 2009) and who had no evidence of bone progression according to the PCWG3 criteria (Scher et al 2016).
ORR final analysis was performed approximately 6 months from Cycle 1 Day 1 of the last subject with a BRCA DNA-repair anomaly and measurable disease. Objective response as determined by investigator assessment was considered as the primary analysis.
Subjects who discontinued the study without a response assessment were considered as non-responders in the analysis. The objective response rate was calculated and its 2-sided 95% exact CI presented. In addition, the counts and percentage of subjects in each response category (CR, PR, etc.) were tabulated.
The following analyses of CTC response were performed for BRCA and non-BRCA analysis sets, measurable and non-measurable subgroups: • Descriptive summaries • CTC response rate was tabulated with its 2-sided 95% exact CI
All time to event secondary endpoints were evaluated using Kaplan-Meier method for BRCA and non-BRCA analysis sets. Median time to event and the corresponding 95% CI were provided. Descriptive summaries were provided for BRCA and non-BRCA analysis sets.

[1] = ALL, ITT (N=223), 300 mg once daily
[2] = ALL, ITT (N=223), 300 mg once daily, listed as niraparib
[3] = ALL, ITT (N=223), Kaplan-Meier, 300 mg once daily
[4] = ALL, ITT with baseline CTC >0 (N=202), 300 mg once daily
[5] = ALL, measurable ITT (N=123), 300 mg once daily
[6] = ALL, measurable ITT responders (N=31), 300 mg once daily
[7] = ALL, measurable ITT responders (N=31), Kaplan-Meier, 300 mg once daily
[8] = BRCA (n = 142), 300 mg once daily
[9] = BRCA, ITT (N=142), 300 mg once daily
[10] = BRCA, ITT (N=142), 300 mg once daily, listed as niraparib
[11] = BRCA, ITT (N=142), Kaplan-Meier, 300 mg once daily

`NC(=O)c1cccc2cn(-c3ccc([C@@H]4CCCNC4)cc3)nc12` [Niraparib, 2-[4-[(3S)-piperidin-3-yl]phenyl]-2H-indazole-7-carboxamide] was tested, and the “Duration of complete response in individual subjects” value (2 BRCA subjects with measurable disease and complete response, 300 mg once daily) was 9.7 months and 9.5 months, the “Time to PSA progression: 6-month event-free rate” value [1] was 0.328 and the “Time to PSA progression: 12-month event-free rate” value [1] was 0.053. The “Time to PSA progression: Censored, % of subjects” value [1] was “(44.4%)”, the “Time to PSA progression: Censored, number of subjects” value [1] was 99 and the “Time to PSA progression: Event, % of subjects” value [1] was “(55.6%)”. For the same compound, the “Time to PSA progression: Event, number of subjects” value [1] was 124, the “Time to radiographic progression: 6-month event-free rate” value [1] was 0.494 and the “Time to radiographic progression: 12-month event-free rate” value [1] was 0.170. For the same compound, the “Time to radiographic progression: 18-month event-free rate” value [1] was 0.034, the “Time to radiographic progression: Censored, % of subjects” value [1] was “(39.9%)” and the “Time to radiographic progression: Censored, number of subjects” value [1] was 89. For the same compound, the “Time to radiographic progression: Event, % of subjects” value [1] was “(60.1%)”, the “Time to radiographic progression: Event, number of subjects” value [1] was 134 and the “Time to symptomatic skeletal event: 6-month event-free rate” value [1] was 0.830. The “Time to symptomatic skeletal event: 12-month event-free rate” value [1] was 0.511, the “Time to symptomatic skeletal event: 18-month event-free rate” value [1] was 0.297 and the “Time to symptomatic skeletal event: 24-month event-free rate” value [1] was 0.297. For the same compound, the “Time to symptomatic skeletal event: Censored, % of subjects” value [1] was “(70.9%)”, the “Time to symptomatic skeletal event: Censored, number of subjects” value [1] was 158 and the “Time to symptomatic skeletal event: Event, % of subjects” value [1] was “(29.1%)”. For the same compound, the “Time to symptomatic skeletal event: Event, number of subjects” value [1] was 65, the “rPFS: 6-month event-free rate” value [1] was 0.475 and the “rPFS: 12-month event-free rate” value [1] was 0.155. The “rPFS: 18-month event-free rate” value [1] was 0.031, the “rPFS: Censored, % of subjects” value [1] was “(35.4%)” and the “rPFS: Censored, number of subjects” value [1] was 79. The “rPFS: Event, % of subjects” value [1] was “(64.6%)”, the “rPFS: Event, number of subjects” value [1] was 144 and the “Time to PSA progression: Event, % of subjects” value [2] was 56%. The “Time to radiographic progression: Event, % of subjects” value [2] was 60%, the “Time to symptomatic skeletal event: Event, % of subjects” value [2] was 29% and the “Time to symptomatic skeletal event: Event, number of subjects” value [2] was “Sixty-five”. For the same compound, the “rPFS: Event, % of subjects” value [2] was 65%, the “Time to PSA progression: time to event, 25th percentile” value [3] was 2.83 months and the “Time to PSA progression: time to event, Median” value [3] was 4.63 months. The “Time to radiographic progression: time to event, 25th percentile” value [3] was 2.76 months, the “Time to radiographic progression: time to event, 75th percentile” value [3] was 11.07 months and the “Time to radiographic progression: time to event, Median” value [3] was 5.78 months. The “Time to symptomatic skeletal event (SSE): time to event, Median” value [3] was 12.88 months, the “Time to symptomatic skeletal event: time to event, 25th percentile” value [3] was 6.97 months and the “rPFS: time to event, 25th percentile” value [3] was 2.07 months. The “rPFS: time to event, 75th percentile” value [3] was 11.01 months, the “CTC Response (CTC = 0 at week 8), % of subjects” value [4] was “(18.3%)” and the “CTC Response (CTC = 0 at week 8), number of subjects” value [4] was 37. The “Best Overall Response: Complete Response (CR), % of subjects” value [5] was 1.6%, the “Best Overall Response: Complete Response (CR), number of subjects” value [5] was 2 and the “Best Overall Response: Not Available (NA), % of subjects” value [5] was 12.2%. The “Best Overall Response: Not Available (NA), number of subjects” value [5] was 15, the “Best Overall Response: Partial Response (PR), % of subjects” value [5] was 23.6% and the “Best Overall Response: Partial Response (PR), number of subjects” value [5] was 29. For the same compound, the “Best Overall Response: Progressive Disease (PD), % of subjects” value [5] was 25.2%, the “Best Overall Response: Progressive Disease (PD), number of subjects” value [5] was 31 and the “Best Overall Response: Stable Disease (SD), % of subjects” value [5] was 37.4%. The “Best Overall Response: Stable Disease (SD), number of subjects” value [5] was 46, the “ORR (objective response rate, RECIST 1.1, no bone progression per PCWG3), % of subjects” value [5] was 25.2% and the “ORR (objective response rate, RECIST 1.1, no bone progression per PCWG3), number of subjects” value [5] was 31. The “Objective response confirmed: Complete Response (CR), % of subjects” value [5] was 1.6%, the “Objective response confirmed: Complete Response (CR), number of subjects” value [5] was 2 and the “Objective response confirmed: Partial Response (PR), % of subjects” value [5] was 23.6%. The “Objective response confirmed: Partial Response (PR), number of subjects” value [5] was 29, the “Duration of objective response: 6-month event-free rate” value [6] was 0.471 and the “Duration of objective response: 12-month event-free rate” value [6] was 0.000. For the same compound, the “Duration of objective response: 18-month event-free rate” value [6] was 0.000, the “Duration of objective response: 24-month event-free rate” value [6] was 0.000 and the “Duration of objective response: Censored, % of subjects” value [6] was “(22.6%)”. For the same compound, the “Duration of objective response: Censored, number of subjects” value [6] was 7, the “Duration of objective response: Event, % of subjects” value [6] was “(77.4%)” and the “Duration of objective response: Event, number of subjects” value [6] was 24. The “Duration of objective response: time to event, 25th percentile” value [7] was 3.75 months, the “Duration of objective response: time to event, 75th percentile” value [7] was 7.20 months and the “Duration of objective response: time to event, Median” value [7] was 5.55 months. The “CRR (composite response rate), % of subjects” value [8] was 57.7%, the “CRR (composite response rate), number of subjects” value [8] was 82 and the “PSA50 (≥50% decline in prostate-specific antigen), % of subjects” value [8] was 43.0%. For the same compound, the “PSA50 (≥50% decline in prostate-specific antigen), number of subjects” value [8] was 61, the “Median rPFS in the BRCA cohort relative to the non-BRCA cohort” value (BRCA vs non-BRCA cohort) was “approximately double” and the “Time to PSA progression: 6-month event-free rate” value [9] was 0.393. For the same compound, the “Time to PSA progression: 12-month event-free rate” value [9] was 0.067, the “Time to PSA progression: Censored, % of subjects” value [9] was “(40.1%)” and the “Time to PSA progression: Event, % of subjects” value [9] was “(59.9%)”. The “Time to radiographic progression: 6-month event-free rate” value [9] was 0.593, the “Time to radiographic progression: 12-month event-free rate” value [9] was 0.234 and the “Time to radiographic progression: 18-month event-free rate” value [9] was 0.046. The “Time to radiographic progression: Censored, % of subjects” value [9] was “(43.0%)”, the “Time to radiographic progression: Censored, number of subjects” value [9] was 61 and the “Time to radiographic progression: Event, % of subjects” value [9] was “(57.0%)”. For the same compound, the “Time to radiographic progression: Event, number of subjects” value [9] was 81, the “Time to symptomatic skeletal event: 6-month event-free rate” value [9] was 0.844 and the “Time to symptomatic skeletal event: 12-month event-free rate” value [9] was 0.543. For the same compound, the “Time to symptomatic skeletal event: 18-month event-free rate” value [9] was 0.323, the “Time to symptomatic skeletal event: 24-month event-free rate” value [9] was 0.323 and the “Time to symptomatic skeletal event: Censored, % of subjects” value [9] was “(67.6%)”. For the same compound, the “Time to symptomatic skeletal event: Censored, number of subjects” value [9] was 96, the “Time to symptomatic skeletal event: Event, % of subjects” value [9] was “(32.4%)” and the “rPFS: 6-month event-free rate” value [9] was 0.572. For the same compound, the “rPFS: 12-month event-free rate” value [9] was 0.215, the “rPFS: 18-month event-free rate” value [9] was 0.043 and the “rPFS: Censored, % of subjects” value [9] was “(38.7%)”. For the same compound, the “rPFS: Censored, number of subjects” value [9] was 55, the “rPFS: Event, % of subjects” value [9] was “(61.3%)” and the “rPFS: Event, number of subjects” value [9] was 87. The “Time to PSA progression: Event, % of subjects” value [10] was 60%, the “rPFS: Event, % of subjects” value [10] was 61% and the “Time to PSA progression: time to event, 25th percentile” value [11] was 3.48 months. The “Time to PSA progression: time to event, 75th percentile” value [11] was 11.07 months.
